Reference: patent publication US8415469B2, “Compounds and methods for kinase modulation, and indications therefor” (Plexxikon Inc., priority 2005, dated 2013)

Assays:
Format in all cases: biochemical
B-Raf = target: T1, B-Raf (Homo sapiens, UniProt P15056); assay: AlphaScreen kinase assay, B-Raf; conditions: read-out: IC50, activity toward kinase B-Raf
T1 construct: purchased Upstate Biotechnology

Akt3 = Akt3 (Homo sapiens, UniProt Q9Y243); assay: AlphaScreen kinase assay, Akt3; conditions: read-out: IC50, activity toward kinase Akt3
Chain of Akt3 (Q9Y243 whole entry): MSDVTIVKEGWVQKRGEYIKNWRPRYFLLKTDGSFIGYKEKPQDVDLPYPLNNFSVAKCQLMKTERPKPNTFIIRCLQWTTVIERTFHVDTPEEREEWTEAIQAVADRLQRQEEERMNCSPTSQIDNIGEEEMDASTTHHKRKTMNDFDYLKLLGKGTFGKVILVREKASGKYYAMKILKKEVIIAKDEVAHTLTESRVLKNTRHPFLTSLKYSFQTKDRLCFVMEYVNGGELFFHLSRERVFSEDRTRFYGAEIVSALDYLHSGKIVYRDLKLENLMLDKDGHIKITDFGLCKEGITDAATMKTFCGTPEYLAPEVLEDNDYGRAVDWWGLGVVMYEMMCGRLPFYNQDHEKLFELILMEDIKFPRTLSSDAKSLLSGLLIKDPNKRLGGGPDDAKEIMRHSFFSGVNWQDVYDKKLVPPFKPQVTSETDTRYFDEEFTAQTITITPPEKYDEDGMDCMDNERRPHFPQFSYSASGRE
How it was run: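 Uses phospho-specific antibody on acceptor beads plus streptavidin donor beads capturing biotinylated peptide substrate; singlet oxygen from donor excites nearby acceptor. Inhibitors tested in 8-point, 1:3 titrations starting from 20 mM DMSO solutions.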

c-Raf-1 = target: T2, c-Raf-1 (Homo sapiens, UniProt P04049); assay: AlphaScreen kinase assay, c-Raf-1; conditions: read-out: IC50, activity toward kinase c-Raf-1
T2 construct: purchased Upstate Biotechnology
T2 sequence (P04049 whole entry): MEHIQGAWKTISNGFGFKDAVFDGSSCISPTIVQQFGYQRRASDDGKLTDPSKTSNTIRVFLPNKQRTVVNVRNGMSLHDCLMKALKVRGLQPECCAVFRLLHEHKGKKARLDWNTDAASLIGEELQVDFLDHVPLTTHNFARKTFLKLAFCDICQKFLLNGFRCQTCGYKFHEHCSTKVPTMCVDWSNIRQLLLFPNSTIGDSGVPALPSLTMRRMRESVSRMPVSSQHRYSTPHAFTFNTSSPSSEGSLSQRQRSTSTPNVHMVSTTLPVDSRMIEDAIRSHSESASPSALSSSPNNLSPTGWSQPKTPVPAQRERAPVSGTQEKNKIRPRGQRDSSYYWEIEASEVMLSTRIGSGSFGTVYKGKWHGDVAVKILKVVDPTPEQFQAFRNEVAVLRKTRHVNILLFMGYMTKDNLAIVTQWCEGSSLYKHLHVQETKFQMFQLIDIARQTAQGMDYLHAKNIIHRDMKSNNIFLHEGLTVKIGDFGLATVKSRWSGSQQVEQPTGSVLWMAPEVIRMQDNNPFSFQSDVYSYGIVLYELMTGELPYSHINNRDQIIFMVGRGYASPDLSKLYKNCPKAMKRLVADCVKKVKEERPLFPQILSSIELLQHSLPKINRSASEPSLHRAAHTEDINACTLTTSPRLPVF

Btk = target: T3, Btk (Homo sapiens, UniProt Q06187); assay: Z'-Lyte FRET kinase assay (Invitrogen), Btk; conditions: read-out: IC50, activity toward kinase Btk
T3 construct: purchased Invitrogen (assay run by Invitrogen)
T3 sequence (Q06187 whole entry): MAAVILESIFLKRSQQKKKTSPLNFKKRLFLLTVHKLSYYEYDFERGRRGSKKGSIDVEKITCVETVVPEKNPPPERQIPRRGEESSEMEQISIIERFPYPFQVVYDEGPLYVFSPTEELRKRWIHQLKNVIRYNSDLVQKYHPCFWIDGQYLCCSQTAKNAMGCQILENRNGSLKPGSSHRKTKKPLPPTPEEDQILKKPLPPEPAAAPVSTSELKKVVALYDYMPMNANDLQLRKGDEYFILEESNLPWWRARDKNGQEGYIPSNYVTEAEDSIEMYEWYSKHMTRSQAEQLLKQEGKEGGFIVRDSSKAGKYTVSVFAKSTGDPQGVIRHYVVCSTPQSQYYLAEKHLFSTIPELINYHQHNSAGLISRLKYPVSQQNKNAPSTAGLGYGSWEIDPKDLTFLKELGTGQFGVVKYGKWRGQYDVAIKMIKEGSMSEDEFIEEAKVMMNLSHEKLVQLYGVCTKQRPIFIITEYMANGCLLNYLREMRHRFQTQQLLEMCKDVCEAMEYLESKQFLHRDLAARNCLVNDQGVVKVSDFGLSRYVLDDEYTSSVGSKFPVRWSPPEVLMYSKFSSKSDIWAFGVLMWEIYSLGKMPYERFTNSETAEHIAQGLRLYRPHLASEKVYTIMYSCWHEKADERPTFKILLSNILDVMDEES

EphB2 = target: T4, EphB2 (Homo sapiens, UniProt P29323); assay: Z'-Lyte FRET kinase assay (Invitrogen), EphB2; conditions: read-out: IC50, activity toward kinase EphB2
T4 construct: purchased Invitrogen (assay run by Invitrogen)
T4 sequence (P29323 19-1055): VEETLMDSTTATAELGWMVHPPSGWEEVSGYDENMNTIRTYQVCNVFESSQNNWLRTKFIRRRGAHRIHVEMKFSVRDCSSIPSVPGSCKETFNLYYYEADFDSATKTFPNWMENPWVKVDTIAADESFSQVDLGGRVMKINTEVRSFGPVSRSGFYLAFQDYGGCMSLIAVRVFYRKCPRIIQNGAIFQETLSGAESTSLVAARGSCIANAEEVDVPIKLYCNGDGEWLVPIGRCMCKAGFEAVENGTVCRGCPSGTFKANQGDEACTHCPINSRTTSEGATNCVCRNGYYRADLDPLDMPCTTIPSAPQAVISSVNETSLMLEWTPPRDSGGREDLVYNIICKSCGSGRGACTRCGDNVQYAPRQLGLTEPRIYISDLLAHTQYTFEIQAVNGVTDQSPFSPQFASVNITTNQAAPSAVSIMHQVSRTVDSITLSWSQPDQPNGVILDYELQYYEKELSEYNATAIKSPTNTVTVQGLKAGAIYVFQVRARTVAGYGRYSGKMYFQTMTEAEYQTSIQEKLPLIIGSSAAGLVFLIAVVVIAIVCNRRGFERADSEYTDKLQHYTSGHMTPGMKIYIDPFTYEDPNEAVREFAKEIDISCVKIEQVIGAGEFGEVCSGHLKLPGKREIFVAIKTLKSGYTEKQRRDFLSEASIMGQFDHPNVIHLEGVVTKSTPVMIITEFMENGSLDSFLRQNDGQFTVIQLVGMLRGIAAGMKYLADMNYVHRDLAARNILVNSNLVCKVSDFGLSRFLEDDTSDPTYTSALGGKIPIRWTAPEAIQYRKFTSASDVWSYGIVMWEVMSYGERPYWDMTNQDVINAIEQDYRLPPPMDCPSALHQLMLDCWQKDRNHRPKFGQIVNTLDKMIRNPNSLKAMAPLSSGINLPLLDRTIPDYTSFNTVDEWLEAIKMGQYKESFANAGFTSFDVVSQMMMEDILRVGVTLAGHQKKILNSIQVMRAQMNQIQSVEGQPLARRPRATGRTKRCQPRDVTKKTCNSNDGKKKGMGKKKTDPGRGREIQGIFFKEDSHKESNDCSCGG
How it was run: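 Read-out is the coumarin-to-fluorescein emission ratio, which rises when unphosphorylated peptide is cleaved by the development protease. Reactions contain serially diluted compound, 2 μM peptide and 10 μM ATP and run for 1 h at room temperature before 1 h development.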

T1 sequence (P15056 whole entry): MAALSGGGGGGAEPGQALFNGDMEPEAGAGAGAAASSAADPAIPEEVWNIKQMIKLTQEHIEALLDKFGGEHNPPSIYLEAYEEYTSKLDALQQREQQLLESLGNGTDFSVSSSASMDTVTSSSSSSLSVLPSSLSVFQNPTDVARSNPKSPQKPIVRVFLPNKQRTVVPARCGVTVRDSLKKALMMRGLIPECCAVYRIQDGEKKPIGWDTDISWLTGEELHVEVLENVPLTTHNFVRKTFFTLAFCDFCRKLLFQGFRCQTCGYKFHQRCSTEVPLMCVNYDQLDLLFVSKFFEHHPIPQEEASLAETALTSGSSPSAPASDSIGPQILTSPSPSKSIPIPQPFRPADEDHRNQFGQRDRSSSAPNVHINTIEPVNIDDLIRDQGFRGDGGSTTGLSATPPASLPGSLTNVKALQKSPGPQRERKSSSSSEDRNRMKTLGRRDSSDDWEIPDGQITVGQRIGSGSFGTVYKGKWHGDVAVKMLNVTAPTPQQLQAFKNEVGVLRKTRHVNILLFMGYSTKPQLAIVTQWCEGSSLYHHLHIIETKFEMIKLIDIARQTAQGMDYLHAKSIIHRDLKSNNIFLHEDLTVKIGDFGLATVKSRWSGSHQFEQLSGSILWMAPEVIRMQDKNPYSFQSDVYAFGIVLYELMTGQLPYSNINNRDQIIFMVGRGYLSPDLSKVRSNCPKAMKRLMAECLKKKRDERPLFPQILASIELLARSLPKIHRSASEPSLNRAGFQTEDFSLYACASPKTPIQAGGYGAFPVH

| IC50 (B-Raf) [µM] | IC50 (Akt3) [µM] | IC50 (c-Raf-1) [µM] | IC50 (Btk) [µM] | IC50 (EphB2) [µM] | Compound |
| --- | --- | --- | --- | --- | --- |
| ≤ 10 | ≤ 10 | ≤ 10 | ≤ 10 | ≤ 10 | Cc1c(O)cccc1C(=O)c1c[nH]c2ncc(-c3cccnc3)cc12 [Compound P-0006, (3-Hydroxy-2-methyl-phenyl)-(5-pyridin-3-yl-1H-pyrrolo[2,3b]pyridin-3-yl)-methanone] |
| ≤ 10 | ≤ 10 | ≤ 10 | ≤ 10 | ≤ 10 | O=C(c1cccc(O)c1F)c1c[nH]c2ncc(-c3cccnc3)cc12 [Compound P-0027, (2-Fluoro-3-hydroxy-phenyl)-(5-pyridin-3-yl-1H-pyrrolo[2,3-b]pyridin-3-yl)-methanone] |
| ≤ 10 | ≤ 10 | ≤ 10 | ≤ 10 | ≤ 10 | O=C(c1cccc(O)c1)c1c[nH]c2ncc(Nc3ccccc3)cc12 [Compound P-0025] |
| ≤ 10 | ≤ 10 | ≤ 10 | ≤ 10 | ≤ 10 | O=C(c1cc(O)ccc1F)c1c[nH]c2ncccc12 [Compound P-0005] |
